Measured values from patent publication US20260151375A1, “CDK2 INHIBITORS AND METHODS OF USING THE SAME” (Cedilla Therapeutics, Inc., priority 2022, published 2026).
Like-named read-outs stand apart in the source and are kept apart here.

What was measured:
Kuramochi cells = assay: IncuCyte Kuramochi Assay (cell proliferation); type: cell-based; conditions: Kuramochi cells labeled with mApple-H2B, cell count, read-out: IncuCyte - Kuramochi RB-WT: IC50
Outline: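 GI50 came from dose-response fits of cell-count fold change between 0 and 72 h, normalized to DMSO controls. Counts were fluorescent nuclei from live-cell images over a 10-point, ½ log series starting at 20 μM.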

CDK2/Cyclin E1 = target: T1, CDK2/Cyclin E1 (Homo sapiens, UniProt P24941); assay: ADPGLO (CDK2/E1-37 C), ADP-Glo Luminescent Kinase Assay; type: biochemical; conditions: 0.18 nM CDK2/Cyclin E1, 100 μM ATP, Histone H1, 37° C.
T1 construct: purchased 14-475
Description: Inhibition of CDK2/Cyclin E1 activity by the presence of small molecules was evaluated using ADP-Glo Luminescent Kinase Assay (Promega). Activated CDK2/Cyclin E1 was incubated with its substrate Histone H1 (SignalChem H10-54N) in the kinase reaction buffer (100 μM ATP, 50 mM HEPES pH 7.5, 10 mM MgCl2, 1 mM EDTA, 2 mM DTT, 0.01% Brij35, 0.5 mg/mL BSA). Luminescence was recorded with an Envision plate reader (PerkinElmer).
Dose titrations of inhibitors in 100% DMSO were combined with 0.36 nM CDK2/Cyclin E1 in reaction buffer. The mixtures were incubated for 60 minutes at 37° C. before the addition of ATP and Histone H1 substrate to initiate the kinase reaction. The final conditions were 0.18 nM CDK2/Cyclin E1, 100 μM ATP, and 1.5 μM Histone H1. The reactions were incubated at 37° C. for 90 minutes before being stopped with the addition of ADP-Glo reagent. This mixture was incubated at room temperature for 60 minutes before Kinase Detection Solution is added to generate luminescence. The stopped reactions were analyzed on an Envision plate reader. The conversion ratios were normalized to yield % activity, plotted against compound concentration, and fit to a four-parameter equation to determine the IC50 for each compound.

Row | Structure (SMILES) | IC50 (Kuramochi cells; 72 h) | IC50 (CDK2/Cyclin E1) | IC50 (Kuramochi cells; 72 hours)
1 | O=C(c1cnn(Cc2cccc3[nH]cnc23)c1)N1CC(c2nnc(C(F)(F)c3ccc(Cl)c(Cl)c3)o2)C2(C1)CN(C(=O)C1(C(F)(F)F)CC1)C2 (centres unmarked) [I-108, (1-((1H-benzo[d]imidazol-4-yl)methyl)-1H-pyrazol-4-yl)(8-(5-((3,4-dichlorophenyl)difluoromethyl)-1,3,4-oxadiazol-2-yl)-2-(1-(trifluoromethyl)cyclopropane-1-carbonyl)-2,6-diazaspiro[3.4]octan-6-yl)methanone] | 5 to 10 µM | 0.5 to 5 µM | –
2 | CC(c1nc(C2CN(C(=O)c3cnn(CC(=O)O)c3)CC23CN(C(=O)[C@H]2CC2(C)C)C3)no1)n1ccc(C2CCCC2)n1 (stereo partly drawn) [I-110, 2-(4-(8-(5-(1-(3-cyclopentyl-1H-pyrazol-1-yl)ethyl)-1,2,4-oxadiazol-3-yl)-2-((S)-2,2-dimethylcyclopropane-1-carbonyl)-2,6-diazaspiro[3.4]octane-6-carbonyl)-1H-pyrazol-1-yl)acetic acid] | > 10 µM | 5 to 10 µM | –
3 | CC(c1nc(C2CN(C(=O)c3cnn(Cc4nnnn4C)c3)CC23CN(C(=O)[C@H]2CC2(C)C)C3)no1)n1ccc(C2CCCC2)n1 (stereo partly drawn) [I-111, (8-(5-(1-(3-cyclopentyl-1H-pyrazol-1-yl)ethyl)-1,2,4-oxadiazol-3-yl)-2-((S)-2,2-dimethylcyclopropane-1-carbonyl)-2,6-diazaspiro[3.4]octan-6-yl)(1-((1-methyl-1H-tetrazol-5-yl)methyl)-1H-pyrazol-4-yl)methanone] | 5 to 10 µM | 0.5 to 5 µM | –
4 | O=C(c1cncc(O)n1)N1CC(c2nnc(C(F)(F)c3ccc(Cl)c(Cl)c3)o2)C2(C1)CN(C(=O)[C@H]1CC1(F)F)C2 (stereo partly drawn) [I-112, (8-(5-((3,4-dichlorophenyl)difluoromethyl)-1,3,4-oxadiazol-2-yl)-2-((R)-2,2-difluorocyclopropane-1-carbonyl)-2,6-diazaspiro[3.4]octan-6-yl)(6-hydroxypyrazin-2-yl)methanone] | > 10 µM | > 10 µM | –
5 | CC(c1nc(C2CN(C(=O)c3cnn(Cc4ccc(C(O)C(F)(F)F)cc4)c3)CC23CN(C(=O)[C@H]2CC2(C)C)C3)no1)n1ccc(C2CCCC2)n1 (some centres unmarked) [I-113] | 0.5 to 5 µM | 0.5 to 5 µM | –
6 | CC(c1nc(C2CN(C(=O)c3cnn(Cc4nnn[nH]4)c3)CC23CN(C(=O)[C@H]2CC2(C)C)C3)no1)n1ccc(C2CCCC2)n1 (stereo partly drawn) [I-114, (1-((1H-tetrazol-5-yl)methyl)-1H-pyrazol-4-yl)(8-(5-(1-(3-cyclopentyl-1H-pyrazol-1-yl)ethyl)-1,2,4-oxadiazol-3-yl)-2-((S)-2,2-dimethylcyclopropane-1-carbonyl)-2,6-diazaspiro[3.4]octan-6-yl)methanone] | – | 0.5 to 5 µM | > 10 µM
7 | CC(c1nc(C2CN(C(=O)c3cnc(O)cn3)CC23CN(C(=O)C2(C(F)(F)F)CC2)C3)no1)n1ccc(C2CCOCC2)n1 (centres unmarked) [I-115] | 5 to 10 µM | 0.5 to 5 µM | –
8 | CC(c1nc(C2CN(C(=O)c3cnc(O)cn3)CC23CN(C(=O)[C@H]2CC2(F)F)C3)no1)n1ccc(C2CCOCC2)n1 (stereo partly drawn) [I-116, (2-((R)-2,2-difluorocyclopropane-1-carbonyl)-8-(5-(1-(3-(tetrahydro-2H-pyran-4-yl)-1H-pyrazol-1-yl)ethyl)-1,2,4-oxadiazol-3-yl)-2,6-diazaspiro[3.4]octan-6-yl)(5-hydroxypyrazin-2-yl)methanone] | > 10 µM | > 10 µM | –
9 | COC(=O)c1ccc(Cn2cc(C(=O)N3CC(c4noc(C(C)n5ccc(C6CCCC6)n5)n4)C4(C3)CN(C(=O)[C@H]3CC3(C)C)C4)cn2)cn1 (some centres unmarked) [I-117] | > 10 µM | 0.5 to 5 µM | –
10 | CC(c1nc(C2CN(C(=O)c3cnn(CC#N)c3)CC23CN(C(=O)[C@H]2CC2(C)C)C3)no1)n1ccc(C2CCCC2)n1 (stereo partly drawn) [I-119, 2-(4-(8-(5-(1-(3-cyclopentyl-1H-pyrazol-1-yl)ethyl)-1,2,4-oxadiazol-3-yl)-2-((S)-2,2-dimethylcyclopropane-1-carbonyl)-2,6-diazaspiro[3.4]octane-6-carbonyl)-1H-pyrazol-1-yl)acetonitrile] | > 10 µM | 0.5 to 5 µM | –
